pIC50: −log10 of the molar value.
Assays:
Format in all cases: biochemical
human BACE-1 = human BACE-1 (Homo sapiens, UniProt P56817); assay: BACE Assay (CEREP); conditions: recombinant enzyme, 60 min at 37° C., pH 4.5; for inhibition at 0.3 µM: test compound 0.3 μM
Method: The test compound, reference compound or water (control) were added to a buffer containing 0.09 M sodium acetate (pH 4.5) and 0.25 μg BACE-1. Compound interference with the fluorimetric detection method due to autofluorescence was then checked by measurements at the wavelengths defined to evaluate the enzyme activity. […] For control basal measurement, the substrate was omitted from the reaction mixture. […] The standard inhibitory reference compound was OM99-2, which was tested in each experiment at several concentrations to obtain an inhibition curve from which its IC50 value was calculated.

β-secretase(BACE) [1] = molecular target: T1, β-secretase(BACE) (Homo sapiens, UniProt P56817); assay: BACE Assay-1 (MCA-substrate, IC50); conditions: procedure of Example 158; read-out: IC50 μM (158)
T1 construct: purchased Panvera
T1 sequence (P56817 46-501): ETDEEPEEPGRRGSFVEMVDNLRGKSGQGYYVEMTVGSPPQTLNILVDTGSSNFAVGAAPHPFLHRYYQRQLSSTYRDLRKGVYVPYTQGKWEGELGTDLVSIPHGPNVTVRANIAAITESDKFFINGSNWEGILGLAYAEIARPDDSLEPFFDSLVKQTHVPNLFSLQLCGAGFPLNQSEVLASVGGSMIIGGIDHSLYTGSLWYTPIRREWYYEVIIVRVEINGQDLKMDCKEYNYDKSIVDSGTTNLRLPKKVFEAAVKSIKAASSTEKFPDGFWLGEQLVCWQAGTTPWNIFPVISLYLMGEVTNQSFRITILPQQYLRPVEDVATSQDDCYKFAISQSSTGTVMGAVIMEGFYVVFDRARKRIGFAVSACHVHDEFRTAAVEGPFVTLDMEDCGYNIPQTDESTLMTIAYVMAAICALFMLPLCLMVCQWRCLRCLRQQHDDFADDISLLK
In short: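 Human BACE (work solution 10 μg/mL) with MCA-peptide substrate (stock 2.0 mg/mL) in 0.05 M citrate buffer, pH 5.0, with PEG8000. Fluorescence read at T0 and T60; compounds tested at multiple concentrations and IC50 calculated from these readings.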

β-secretase(BACE) [2] = molecular target: T1, β-secretase(BACE); assay: BACE Assay-2 (FS1 substrate, IC50 and Ki); conditions: procedure of Example 159, FS1 substrate; for Ki: read-out: Ki μM (159)
β-secretase(BACE) [3] = molecular target: T1, β-secretase(BACE); assay: BACE % Inhibition Assay ((Aedens)-[…]-(Dabcyl K-amide) substrate); conditions: % error ±10%; for inhibition at 3 µM / inhibition at 10 µM: read-out: % Inhibition; for inhibition at 0.3 µM: 0.3 μM test compound; for inhibition at 1 µM: 1 μM test compound
Method: The substrate stock solution was prepared in DMSO as a 10 mg/mL solution. The substrate working solution was prepared by diluting the 10 mg/mL stock solution with substrate assay buffer to a final concentration of 300 μg/mL. The β-secretase (BACE) working solution was prepared by diluting a 0.83 mg/mL BACE stock solution with enzyme assay buffer to a final concentration of 4 μg/mL.
Test compounds were dissolved in DMSO to 10 mM.
The screening procedure for this assay was as follows: 15 μL of BACE working solution was pipetted into each well of a 96-well plate. To each well was then pipetted 2 μL of test compound at the selected concentration. Test compound and BACE were then mixed with a pipettor and incubated for 20 min at room temperature. To each well was then added 10 μL of the substrate working solution. The plates were then incubated for 1 hour at room temperature.
The procedure for the blank was as follows. 15 μL of assay buffer was pipetted into each well to be used as a blank control. To each well was then added 2 μL of vehicle and 10 μL of substrate working solution. The plates were then incubated for 1 hour at room temperature.
The procedure for the positive control was as follows: 15 μl of BACE working solution was pipetted into each well to be used as a positive control. To each well was then pipetted 2 μL of vehicle. Vehicle and BACE were then mixed with a pipettor and incubated for 20 min at room temperature. To each well was then added 10 μL of the substrate working solution. The plates were then incubated for 1 hour at room temperature.
For test compounds, % inhibition was determined at each concentration as follows: […]

β-secretase(BACE) [4] = molecular target: T1, β-secretase(BACE); assay: BACE FS1% Inhibition Assay; conditions: FS1 substrate; for inhibition at 0.3 µM: 0.3 μM test compound, read-out: % Inhibition (FS) 0.3 μM; for inhibition at 1 µM: 1 μM test compound, read-out: % Inhibition (FS) 1 μM; for inhibition at 3 µM: 3 μM test compound, read-out: % Inhibition (FS) 3 μM
In short: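 Percent inhibition at each tested concentration, referenced to enzyme-free blank and vehicle-only positive control. Reaction: compound and BACE (4 μg/mL working stock) mixed 20 min at room temperature before FS1 substrate (300 μg/mL working stock), then 1 h at room temperature.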

human BACE-1, sequence (P56817 46-501): as above

Molecule	IC50 (β-secretase(BACE) [1]) [µM]	IC50 (β-secretase(BACE) [2]) [µM]	Ki (β-secretase(BACE) [2]) [µM]	inhibition at 3 µM (β-secretase(BACE) [3]; 3 μM test compound) [%]	inhibition at 10 µM (β-secretase(BACE) [3]; 10 μM test compound) [%]	also measured
NC1=Nc2ccc(Oc3ccccc3)cc2CN1[C@@H](CCC(=O)N(CCO[C@@H]1O[C@H](CO)[C@@H](O)[C@H](O)[C@H]1O)C1CCCCC1)C1CCCCC1 [Compound 798, 4-(2-Amino-6-phenoxy-4H-quinazolin-3-yl)-4S,N-dicyclohexyl-N-[2R-(3R,4S,5S-trihydroxy-6R-hydroxymethyl-tetrahydro-pyran-2-yloxy)-ethyl]-butyramide]						pIC50 (human BACE-1): 7.13; inhibition at 0.3 µM (human BACE-1): 95%
CN(C(=O)CCC(CCC(=O)N(C)C1CCCCC1)N1Cc2cc(Oc3ccccc3)ccc2N=C1N)C1CCCCC1 [Compound 84, 4-(2-Amino-6-phenoxy-4H-quinazolin-3-yl)-heptanedioic acid bis-(cyclohexyl-methyl-amide)]	0.47	3.1	0.76	38	63	
CN(C(=O)CCN1Cc2cc(Oc3ccccc3)ccc2N=C1N)C1CCCCC1 [Compound 20, 3-(2-Amino-6-phenoxy-4H-quinazolin-3-yl)-N-cyclohexyl-N-methyl-propionamide]	0.48	2.1	0.34	68	83	
CCCN1Cc2cc(Oc3cccc(NC(=O)OCc4ccccc4)c3)ccc2N=C1N [Compound 67]	0.68	3.9	0.81	44	71	
CCCN1Cc2cc(Oc3cccc(NCC4CCCCC4)c3)ccc2N=C1N [Compound 55]	0.28	2.4	0.79	62	95	
CCCN1Cc2cc(Oc3cccc(NC4CCCCC4)c3)ccc2N=C1N [Compound 53]	1	6.8	0.82	34	82	
CCCC(CNC(=O)OC(C)(C)C)N1Cc2cc(Oc3ccccc3)ccc2N=C1N (stereo not drawn) [Compound 318]	0.25		0.19	103		inhibition at 0.3 µM (β-secretase(BACE) [3]): 32%; inhibition at 1 µM (β-secretase(BACE) [3]): 70%
3-(2-Amino-6-phenoxy-4H-quinazolin-3-yl)-pentanedioic acid bis-(cyclohexyl-methyl-amide) [Compound 107]	0.82	4.58	1.2			% Inhibition (β-secretase(BACE) [3]; 3 μM test compound): 48%; % Inhibition (β-secretase(BACE) [3]; 10 μM test compound): 78%
NC1=Nc2ccc(C(=O)c3ccccc3)cc2CN1CCCCNC(=O)C1CCCCC1 [Compound 30]	11	20	2.3	32	48	
NC1=Nc2ccc(Oc3ccccc3)cc2CN1CCCNC(=O)C1CCCCC1 [Compound 108]	0.32	0.954	0.076	73	90	
NC1=Nc2ccc(Oc3ccccc3)cc2CN1[C@@H](CCC(=O)N1C2CCCCC2C[C@H]1C(=O)O)C1CCCCC1 (stereo partly drawn) [Compound 795, 1-[4-(2-Amino-6-phenoxy-4H-quinazolin-3-yl)-4S-cyclohexyl-butyryl]-octahydro-indole-2S-carboxylic acid]						pIC50 (human BACE-1): 6.82; inhibition at 0.3 µM (human BACE-1): 98%
NC1=Nc2ccc(Oc3ccccc3)cc2CN1[C@@H](CCC(=O)N(Cc1cnc[nH]1)C1CCCCC1)C1CCCCC1 [Compound 796]						pIC50 (human BACE-1): 6.72
NC1=Nc2ccc(Oc3ccccc3)cc2CN1Cc1cccc(C(=O)N(C2CCCCC2)C2CCCCC2)c1 [Compound 98]	0.2	2.3	1.1	76	99	inhibition at 0.3 µM (β-secretase(BACE) [4]): 49%; inhibition at 1 µM (β-secretase(BACE) [4]): 93%; inhibition at 3 µM (β-secretase(BACE) [4]): 114%
NC1=Nc2ccc(C(=O)c3ccccc3)cc2CN1CCCCC(=O)N(C1CCCCC1)C1CCCCC1 [Compound 46]	0.6	2.1	0.6	66	82	
CN(CCN1Cc2cc(C(=O)c3ccccc3)ccc2N=C1N)C(=O)C1CCCCC1 [Compound 23]	4.9	10	1.1	47	76	
NC1=Nc2ccc(C(=O)c3ccccc3)cc2CN1CCNC(=O)C1CCCCC1 [Compound 7, Cyclohexanecarboxylic acid [2-(2-amino-6-benzoyl-4H-quinazolin-3-yl)-ethyl]-amide]	1.4	5.3	0.24	76	87	
CN(Cc1cccc2ccccc12)C(=O)CCCCN1Cc2cc(C(=O)c3ccccc3)ccc2N=C1N [Compound 51]	2.2	13	1.2	< 30	56	
CN(C(=O)CCCCN1Cc2cc(C(=O)c3ccccc3)ccc2N=C1N)C1CCCCC1 [Compound 27]	1.2	3	0.66	63	81	

Continued, in another order:

IC50 (β-secretase(BACE) [1]) [µM]	IC50 (β-secretase(BACE) [2]) [µM]	Ki (β-secretase(BACE) [2]) [µM]	inhibition at 3 µM (β-secretase(BACE) [3]; 3 μM test compound) [%]	inhibition at 10 µM (β-secretase(BACE) [3]; 10 μM test compound) [%]	Molecule	also measured
0.053		0.074	120		NC1=Nc2ccc(Oc3ccccc3)cc2CN1C(CNC(=O)c1ccccc1)C1CCCCC1 (stereo not drawn) [Compound 319]	inhibition at 0.3 µM (β-secretase(BACE) [3]): 61%; inhibition at 1 µM (β-secretase(BACE) [3]): 95%
0.053	1.24	0.4	75	96	CN(C(=O)c1cccc(CN2Cc3cc(Oc4cccc(NS(=O)(=O)c5ccccc5)c4)ccc3N=C2N)c1)C1CCCCC1 [Compound 110]	inhibition at 0.3 µM (β-secretase(BACE) [4]): < 30%; inhibition at 1 µM (β-secretase(BACE) [4]): 30%; inhibition at 3 µM (β-secretase(BACE) [4]): 84%
0.093		0.16	120		NC1=Nc2ccc(Oc3ccccc3)cc2CN1C(CCNC(=O)C1CCCC1)C1CCCCC1 (stereo not drawn) [Compound 392]	inhibition at 0.3 µM (β-secretase(BACE) [3]): 75%; inhibition at 1 µM (β-secretase(BACE) [3]): 116%
0.082		0.19	119		NC1=Nc2ccc(Oc3ccccc3)cc2CN1C(CNC(=O)C1CCCCC1)c1ccccc1 (stereo not drawn) [Compound 342]	inhibition at 0.3 µM (β-secretase(BACE) [3]): 50%; inhibition at 1 µM (β-secretase(BACE) [3]): 93%
0.18	1.6	0.38	67	92	NC1=Nc2ccc(Oc3ccccc3)cc2CN1CCCCC(=O)N(C1CCCCC1)C1CCCCC1 [Compound 19]	
0.15		0.29	113		NC1=Nc2ccc(Oc3ccccc3)cc2CN1C(CCNC(=O)CC1CCCC1)C1CCCCC1 (stereo not drawn) [Compound 393]	inhibition at 0.3 µM (β-secretase(BACE) [3]): < 30%; inhibition at 1 µM (β-secretase(BACE) [3]): 52%
0.12		0.59	88	92	NC1=Nc2ccc(Oc3ccccc3)cc2CN1CCNC(=O)C1CCCC1 [Compound 112]	
0.11	0.94	0.12	61	80	CC(C)(C)OC(=O)NCCN1Cc2cc(Oc3ccccc3)ccc2N=C1N [Compound 80]	
0.041		0.065	118		CCCC(CNC(=O)C1CCCCC1)N1Cc2cc(Oc3ccccc3)ccc2N=C1N (stereo not drawn) [Compound 343]	inhibition at 0.3 µM (β-secretase(BACE) [3]): 81%; inhibition at 1 µM (β-secretase(BACE) [3]): 101%
0.054		0.1	115		NC1=Nc2ccc(Oc3ccccc3)cc2CN1C(CCNC(=O)C1CCCCC1)C1CCCCC1 (stereo not drawn) [Compound 391]	inhibition at 0.3 µM (β-secretase(BACE) [3]): 35%; inhibition at 1 µM (β-secretase(BACE) [3]): 93%
